Like-named read-outs stand apart in the source and are kept apart here.
Assays:
[1] = system: colon cancer cells (HCT116); conditions: HCT116, among phenolic acids formed in TIM-2; cited from earlier work
[2] = first 4 h; cited from earlier work
[3] = TIM-1 gastrointestinal model bioaccessibility of maqui berry anthocyanins; format: in vitro ADME; conditions: for Total Bioaccessible Anthocyanin Amount: maqui berry extract in TIM-1, jejunal + ileal absorption over 4 h
diabetic C57b1/6J mice = conditions: gavage; cited from earlier work
[4] = maqui berry extract in TIM-1, over 4 h

O=C(O)Cc1ccc(O)c(O)c1 [3,4-dihydroxyphenylacetic acid]
Antiproliferative activity [1]: antiproliferative activity

OC[C@H]1O[C@@H](Oc2cc3c(O)cc(O)cc3[o+]c2-c2ccc(O)c(O)c2)[C@H](O)[C@@H](O)[C@@H]1O [Cyanidin-3-glucoside]
Recovery in ileostomy patients [2]: 1.5%
Total Bioaccessibility as % of intake [3]: 4.28 +/− 0.67 % of intake

OC[C@H]1O[C@@H](Oc2cc3c(O[C@@H]4O[C@H](CO)[C@@H](O)[C@H](O)[C@H]4O)cc(O)cc3[o+]c2-c2cc(O)c(O)c(O)c2)[C@H](O)[C@@H](O)[C@@H]1O [Delphinidin-3,5-diglucoside]
Total Bioaccessible Anthocyanin Amount [3]: 1.17 ± 0.57 mg
Recovery in Ileal Efflux as a % of Intake [3, 4]: 0.77 +/− 0.77 % of intake
Total Bioaccessibility as % of intake [3, 4]: 3.61 +/− 1.74 % of intake
Total Bioaccessibility as % of intake ([3]; maqui berry extract in TIM-1, over 4 h, listed as delphinidin-3,5-diglucoside): 3.6 % of intake

OC[C@H]1O[C@@H](Oc2cc3c(O)cc(O)cc3[o+]c2-c2cc(O)c(O)c(O)c2)[C@H](O)[C@@H](O)[C@@H]1O [Delphinidin-3-glucoside]
Total Bioaccessible Anthocyanin Amount [3]: 3.02 ± 1.83 mg
Recovery in Ileal Efflux as a % of Intake [3, 4]: 0.87 +/− 0.78 % of intake
Total Bioaccessibility as % of intake [3, 4]: 3.15 +/− 1.91 % of intake

OC[C@H]1O[C@@H](Oc2cc(O)cc3[o+]c(-c4cc(O)c(O)c(O)c4)c(O[C@@H]4O[C@H](CO)[C@@H](O)[C@H](O)[C@H]4O[C@@H]4OC[C@@H](O)[C@H](O)[C@H]4O)cc23)[C@H](O)[C@@H](O)[C@@H]1O [Delphinidin-3-sambubioside-5-glucoside]
Recovery in Ileal Efflux as a % of Intake [3, 4]: 0.32+/− 0.32 % of intake

OC[C@H]1O[C@@H](Oc2cc3c(O)cc(O)cc3[o+]c2-c2cc(O)c(O)c(O)c2)[C@H](O[C@@H]2OC[C@@H](O)[C@H](O)[C@H]2O)[C@@H](O)[C@@H]1O [Delphinidin-3-sambubioside]
Total Bioaccessibility as % of intake [3]: 1.23 +/− 0.49 % of intake
Recovery in Ileal Efflux as a % of Intake [3, 4]: 0.26 +/− 0.24 % of intake

COc1cc(-c2[o+]c3cc(O)cc(O)c3cc2O[C@@H]2O[C@H](CO)[C@@H](O)[C@H](O)[C@H]2O)cc(OC)c1O [malvidin-3-O-glucoside]
Effect on blood glucose levels (diabetic C57b1/6J mice): significantly hypoglycemic

Cyanidin-3-sambubioside-5-glucoside + cyanidin3,5-diglucoside
Total Bioaccessibility as % of intake [3]: 17.84 +/− 2.61 % of intake

From paper PMC3310271 (Journal of agricultural and food chemistry, 2011)
